This assay has as its system CD2F1 mice, L1210 leukemia ip, survival T/C. Description: NCI In Vivo Anticancer Drug Screen. Data for tumor model L1210 Leukemia (intraperitoneal) in CD2F1 (CDF1) mice. To be noted: higher = longer survival. The method in brief: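 Ratio T/C, where T is the treated-group value and C the vehicle-dosed control value, from mice implanted with a transplantable tumor.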

SMILES strings stand for the structures. Toxic doses and inconclusive results are not listed.

For the compound `CS(=O)(=O)OCCC(=O)N1CCN(C(=O)CCOS(C)(=O)=O)CC1`, the T/C runs as follows: (endpoint: mean survival time, dose: 4.0 mg/kg/injection, schedule: Q03HX024 (oral), vehicle: saline) 97 % of control; (endpoint: mean survival time, dose: 8.0 mg/kg/injection, schedule: Q03HX008 (ip), vehicle: saline) 120 % of control; (endpoint: mean survival time, dose: 8.0 mg/kg/injection, schedule: Q03HX008 (oral), vehicle: saline) 93 % of control; (endpoint: mean survival time, dose: 8.0 mg/kg/injection, schedule: Q03HX016 (oral), vehicle: saline) 94 % of control; (endpoint: mean survival time, dose: 8.0 mg/kg/injection, schedule: Q03HX024 (oral), vehicle: saline) 100 % of control; (endpoint: mean survival time, dose: 16.0 mg/kg/injection, schedule: Q01DX009 (oral), vehicle: saline) 101 % of control. Moreover, the T/C was 96 % of control (endpoint: mean survival time, dose: 16.0 mg/kg/injection, schedule: Q03HX008 (oral), vehicle: saline); 169 % of control (endpoint: mean survival time, dose: 16.0 mg/kg/injection, schedule: Q03HX016 (ip), vehicle: saline); 100 % of control (endpoint: mean survival time, dose: 16.0 mg/kg/injection, schedule: Q03HX016 (oral), vehicle: saline); 200 % of control (endpoint: mean survival time, dose: 16.0 mg/kg/injection, schedule: Q03HX024 (ip), vehicle: saline); 109 % of control (endpoint: mean survival time, dose: 16.0 mg/kg/injection, schedule: Q03HX024 (oral), vehicle: saline); 165 % of control (endpoint: mean survival time, dose: 32.0 mg/kg/injection, schedule: Q01DX009 (ip), vehicle: saline). Moreover, the T/C is 103 % of control (endpoint: mean survival time, dose: 32.0 mg/kg/injection, schedule: Q01DX009 (oral), vehicle: saline); 182 % of control (endpoint: mean survival time, dose: 32.0 mg/kg/injection, schedule: Q03HX008 (ip), vehicle: saline); 102 % of control (endpoint: mean survival time, dose: 32.0 mg/kg/injection, schedule: Q03HX008 (oral), vehicle: saline); 207 % of control (endpoint: mean survival time, dose: 32.0 mg/kg/injection, schedule: Q03HX016 (ip), vehicle: saline); 95 % of control (endpoint: mean survival time, dose: 32.0 mg/kg/injection, schedule: Q03HX016 (oral), vehicle: saline); 168 % of control (endpoint: mean survival time, dose: 32.0 mg/kg/injection, schedule: Q03HX024 (ip), vehicle: saline). In addition, the T/C was 114 % of control (endpoint: mean survival time, dose: 32.0 mg/kg/injection, schedule: Q03HX024 (oral), vehicle: saline); 100 % of control (endpoint: mean survival time, dose: 32.0 mg/kg/injection, schedule: Q04DX003 (oral), vehicle: saline); 98 % of control (endpoint: mean survival time, dose: 64.0 mg/kg/injection, schedule: Q01DX001 (oral), vehicle: saline); 208 % of control (endpoint: mean survival time, dose: 64.0 mg/kg/injection, schedule: Q01DX009 (ip), vehicle: saline); 105 % of control (endpoint: mean survival time, dose: 64.0 mg/kg/injection, schedule: Q01DX009 (oral), vehicle: saline); 106 % of control (endpoint: mean survival time, dose: 64.0 mg/kg/injection, schedule: Q03HX008 (oral), vehicle: saline). The T/C reads like this: (endpoint: mean survival time, dose: 64.0 mg/kg/injection, schedule: Q03HX016 (ip), vehicle: saline) 103 % of control; (endpoint: mean survival time, dose: 64.0 mg/kg/injection, schedule: Q03HX016 (oral), vehicle: saline) 97 % of control; (endpoint: mean survival time, dose: 64.0 mg/kg/injection, schedule: Q04DX003 (oral), vehicle: saline) 105 % of control; (endpoint: mean survival time, dose: 64.0 mg/kg/injection, schedule: Q08DX002 (oral), vehicle: saline) 92 % of control; (endpoint: mean survival time, dose: 128.0 mg/kg/injection, schedule: Q01DX001 (oral), vehicle: saline) 98 % of control; (endpoint: mean survival time, dose: 128.0 mg/kg/injection, schedule: Q01DX009 (ip), vehicle: saline) 124 % of control. The T/C was 110 % of control (endpoint: mean survival time, dose: 128.0 mg/kg/injection, schedule: Q01DX009 (oral), vehicle: saline); 193 % of control (endpoint: mean survival time, dose: 128.0 mg/kg/injection, schedule: Q04DX003 (ip), vehicle: saline); 95 % of control (endpoint: mean survival time, dose: 128.0 mg/kg/injection, schedule: Q04DX003 (oral), vehicle: saline); 194 % of control (endpoint: mean survival time, dose: 128.0 mg/kg/injection, schedule: Q08DX002 (ip), vehicle: saline); 90 % of control (endpoint: mean survival time, dose: 128.0 mg/kg/injection, schedule: Q08DX002 (oral), vehicle: saline); 166 % of control (endpoint: mean survival time, dose: 256.0 mg/kg/injection, schedule: Q01DX001 (ip), vehicle: saline). The T/C is 94 % of control (endpoint: mean survival time, dose: 256.0 mg/kg/injection, schedule: Q01DX001 (oral), vehicle: saline); 110 % of control (endpoint: mean survival time, dose: 256.0 mg/kg/injection, schedule: Q01DX009 (oral), vehicle: saline); 181 % of control (endpoint: mean survival time, dose: 256.0 mg/kg/injection, schedule: Q04DX003 (ip), vehicle: saline); 100 % of control (endpoint: mean survival time, dose: 256.0 mg/kg/injection, schedule: Q04DX003 (oral), vehicle: saline); 228 % of control (endpoint: mean survival time, dose: 256.0 mg/kg/injection, schedule: Q08DX002 (ip), vehicle: saline); 96 % of control (endpoint: mean survival time, dose: 256.0 mg/kg/injection, schedule: Q08DX002 (oral), vehicle: saline). Besides, the T/C was 89 % of control (endpoint: mean survival time, dose: 512.0 mg/kg/injection, schedule: Q01DX001 (ip), vehicle: saline); 96 % of control (endpoint: mean survival time, dose: 512.0 mg/kg/injection, schedule: Q01DX001 (oral), vehicle: saline); 103 % of control (endpoint: mean survival time, dose: 512.0 mg/kg/injection, schedule: Q04DX003 (ip), vehicle: saline); 94 % of control (endpoint: mean survival time, dose: 512.0 mg/kg/injection, schedule: Q08DX002 (oral), vehicle: saline).
With `CC1(C)OC(C(COC(c2ccccc2)(c2ccccc2)c2ccccc2)OC(=O)c2ccccc2)C(C(COC(c2ccccc2)(c2ccccc2)c2ccccc2)OC(=O)c2ccccc2)O1` (configuration not stated), the T/C is, setting by setting: (endpoint: mean survival time, dose: 50.0 mg/kg/injection, schedule: Q01DX009 (ip), vehicle: Klucel (hydroxypropylcellulose) (HPC)) 98 % of control; (endpoint: mean survival time, dose: 100.0 mg/kg/injection, schedule: Q01DX009 (ip), vehicle: Klucel (hydroxypropylcellulose) (HPC)) 94 % of control; (endpoint: mean survival time, dose: 200.0 mg/kg/injection, schedule: Q01DX009 (ip), vehicle: Klucel (hydroxypropylcellulose) (HPC)) 94 % of control.
Turning to `Cc1ccc(Nc2ncnc3c2ncn3C2OC(CO)C(O)C2O)cc1` (configuration not stated), the T/C was 94 % of control (endpoint: mean survival time, dose: 12.5 mg/kg/injection, schedule: Q01DX005 (ip), vehicle: distilled water + Tween-80); 94 % of control (endpoint: mean survival time, dose: 25.0 mg/kg/injection, schedule: Q01DX005 (ip), vehicle: distilled water + Tween-80); 94 % of control (endpoint: mean survival time, dose: 50.0 mg/kg/injection, schedule: Q01DX005 (ip), vehicle: distilled water + Tween-80); 96 % of control (endpoint: mean survival time, dose: 100.0 mg/kg/injection, schedule: Q01DX005 (ip), vehicle: distilled water + Tween-80); 94 % of control (endpoint: mean survival time, dose: 200.0 mg/kg/injection, schedule: Q01DX005 (ip), vehicle: distilled water + Tween-80).
Regarding `CCOc1cc(/C=N/NC(=O)C[n+]2ccccc2)ccc1O`, the T/C is 99 % of control (endpoint: mean survival time, dose: 25.0 mg/kg/injection, schedule: Q01DX009 (ip), vehicle: saline with Tween-80); 103 % of control (endpoint: mean survival time, dose: 50.0 mg/kg/injection, schedule: Q01DX009 (ip), vehicle: saline with Tween-80); 99 % of control (endpoint: mean survival time, dose: 100.0 mg/kg/injection, schedule: Q01DX009 (ip), vehicle: saline with Tween-80).
Consider `O=C1C(=O)c2ccc(Br)cc2C(O)=C1/C=C/c1ccccc1`, for which the T/C runs as follows: (endpoint: mean survival time, dose: 50.0 mg/kg/injection, schedule: Q01DX001 (ip), vehicle: saline) 104 % of control; (endpoint: mean survival time, dose: 100.0 mg/kg/injection, schedule: Q01DX001 (ip), vehicle: saline) 101 % of control; (endpoint: mean survival time, dose: 200.0 mg/kg/injection, schedule: Q01DX001 (ip), vehicle: saline) 103 % of control.
Regarding `COc1ccc(-c2nc(N)nc3c2CN(CCC(=O)O)C3=O)cc1`, the T/C was 102 % of control (endpoint: mean survival time, dose: 100.0 mg/kg/injection, schedule: Q04DX003 (ip), vehicle: saline); 100 % of control (endpoint: mean survival time, dose: 200.0 mg/kg/injection, schedule: Q04DX003 (ip), vehicle: saline); 102 % of control (endpoint: mean survival time, dose: 400.0 mg/kg/injection, schedule: Q04DX003 (ip), vehicle: saline).
On to `O=[N+]([O-])c1ccc(N2CCOCC2)c2c1no[n+]2[O-]`, for which the T/C (endpoint: median survival time, dose: 12.5 mg/kg/injection, schedule: Q01DX009 (ip), vehicle: saline with Tween-80) was 117 % of control; the T/C (endpoint: median survival time, dose: 25.0 mg/kg/injection, schedule: Q01DX009 (ip), vehicle: saline with Tween-80) is 112 % of control; the T/C (endpoint: median survival time, dose: 50.0 mg/kg/injection, schedule: Q01DX009 (ip), vehicle: saline with Tween-80) was 108 % of control; the T/C (endpoint: median survival time, dose: 100.0 mg/kg/injection, schedule: Q01DX009 (ip), vehicle: saline with Tween-80) is 91 % of control.
